Laboratory results as given in the supplement of paper PMC10307832.

Tests used:
Test in all cases: relative viability (nuclei count vs DMSO), 5 days (fraction); higher = more cells survive
[1] = compound: C1/C(=C\C2=CC=CS2)/C(=O)/C(=C/C3=CC=CS3)/C1 + CS(=O)(=O)N1CCN(Cc2cc3nc(-c4cccc5[nH]ncc45)nc(N4CCOCC4)c3s2)CC1 [Pictilisib] (partner 1 µM)
In short: (§1)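 Lung cancer cell lines were pin-tool dosed in 1536-well plates on the day after seeding, with either a lone drug or a fixed anchor-drug dose plus five library-drug doses (not always all listed) in √10 steps. Nuclei were counted on 4× images after 5 days. Relative viability is the ratio of treated-well to vehicle-well nuclei counts, with each value a median of duplicate plates.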

[2] = compound: C[C@]12O[C@H](C[C@]1(O)CO)n1c3ccccc3c3c4c(c5c6ccccc6n2c5c31)CNC4=O [Lestaurtinib] + C[C@]1(O)C[C@@H](c2nc(-c3ccc4ccc(-c5ccccc5)nc4c3)c3c(N)nccn32)C1 [Linsitinib] (partner 1 µM)
In short: as §1

[3] = compound: C1/C(=C\C2=CC=CS2)/C(=O)/C(=C/C3=CC=CS3)/C1 + CC(=O)c1c(C)c2cnc(Nc3ccc(N4CCNCC4)cn3)nc2n(C2CCCC2)c1=O [Palbociclib] (partner 0.5 µM)
In short: as §1

[4] = compound: C[C@]12O[C@H](C[C@]1(O)CO)n1c3ccccc3c3c4c(c5c6ccccc6n2c5c31)CNC4=O [Lestaurtinib] + CC1(C)CCC(c2ccc(Cl)cc2)=C(CN2CCN(c3ccc(C(=O)NS(=O)(=O)c4ccc(N[C@H](CCN5CCOCC5)CSc5ccccc5)c(S(=O)(=O)C(F)(F)F)c4)cc3)CC2)C1 [Navitoclax] (partner 0.5 µM)
In short: as §1

Cell Line	relative viability ([1]; first compound 0.2 µM)	relative viability ([1]; first compound 0.6325 µM)	relative viability ([1]; first compound 2 µM)	relative viability ([1]; first compound 20 µM)	relative viability ([2]; first compound 0.005 µM)	relative viability ([2]; first compound 0.01581 µM)	relative viability ([2]; first compound 0.05 µM)	relative viability ([2]; first compound 0.1581 µM)	relative viability ([2]; first compound 0.5 µM)	relative viability ([3]; first compound 0.2 µM)	relative viability ([3]; first compound 0.6325 µM)	relative viability ([3]; first compound 2 µM)	relative viability ([3]; first compound 6.325 µM)	relative viability ([3]; first compound 20 µM)	relative viability ([4]; first compound 0.005 µM)	relative viability ([4]; first compound 0.01581 µM)	relative viability ([4]; first compound 0.05 µM)	relative viability ([4]; first compound 0.1581 µM)	relative viability ([4]; first compound 0.5 µM)	relative viability ([1]; first compound 6.325 µM)
NCI-H1651	0.527	0.596	0.646	0.516	0.985	1.06	0.969	0.695	0.438	0.48	0.554	0.563	0.47	0.527	1.12	1.12	0.79	1.05	0.471	
HARA	0.452	0.448	0.508	0.445	1.02	1.09	0.648	0.453	0.198	0.278	0.238	0.337	0.196	0.32	1.15	1.18	1.21	1.07	0.196	0.504
NCI-H1944	0.35	0.333	0.357	0.341	1.14	1.14	0.717	0.555	0.634	0.349	0.371	0.349		0.317	1.12	1.01	0.956	0.673	0.638	0.162
NCI-H2347	0.652	0.63	0.928	0.446	1.06	1.05	0.86	0.575	0.55	0.381	0.454	0.449	0.398	0.413	0.835	0.87	0.575	0.526	0.42	0.889
201T	0.695	0.688	0.697	0.664	1.03	0.987	0.992	0.926	0.937	0.348	0.37	0.349	0.353	0.348	1.21	1.22	1.29	1.28	1.18	0.607
PC-14	0.815	0.654	0.69	0.737	0.933	1.04	0.543	0.613	0.578	0.668	0.563	0.523	0.435	0.501	1.09	1.07	0.765	0.863	0.607	0.755
NCI-H727	0.328	0.419	0.609	0.455	0.306	0.255	0.28	0.285	0.18	0.632	0.678	0.61		0.669	0.502	0.478	0.489	0.332	0.185	0.21
NCI-H1792	0.257	0.314	0.298	0.247	0.757	0.56	0.386	0.243	0.144	0.665	0.656	0.713	0.331	0.627	0.322	0.86	0.428	0.23	0.166	
COR-L23	0.765	0.827	0.922	0.892	1	0.858		0.471	0.153	0.333	0.283	0.338	0.294	0.297	1.14	1.12		0.62	0.184	0.674
HOP-62	0.781	0.657	0.824	0.889	0.838	0.994	0.995	1.05	0.891	0.486	0.499	0.465	0.41	0.473	0.979	1.07	0.657	0.916	0.988	0.704
NCI-H1915	0.953	0.896	0.981	0.788	1.21	1.09	1.11	0.797	0.565	0.507	0.55	0.515	0.459	0.5	0.766	0.801	0.774	0.724	0.503	0.839
BEN	0.551	0.628	0.612	0.491	0.949	1.09	0.747	0.778	0.321	0.504	0.531	0.511	0.411	0.518	0.0676	0.07	0.0559	0.0652	0.0525	0.519
NCI-H1437	0.437	0.402	0.406	0.36	1.02	1.24	0.739	0.775	0.302	0.322	0.314	0.282	0.307	0.336	1.13	1.2	1	1.02	0.689	0.404
EMC-BAC-2	0.61	0.548	0.545	0.505	0.764	0.801	0.641	0.45	0.221	0.548	0.549	0.526	0.472	0.518	1.25	1.22	0.891	0.656	0.346	0.48
NCI-H647	0.439	0.329	0.563	0.379	1.08	0.818	0.828	0.265	0.311	0.441	0.442	0.378	0.398	0.405	1.08	0.945	0.572	0.465	0.116	0.382
LXF-289	0.814	0.772	0.821	0.797	0.967	0.964	0.741	0.802	0.197	0.648	0.615	0.567	0.577	0.56	0.93	0.986	0.742	0.707	0.161	0.699

Cell Line	relative viability ([1]; first compound 0.2 µM)	relative viability ([1]; first compound 0.6325 µM)	relative viability ([1]; first compound 2 µM)	relative viability ([1]; first compound 20 µM)	relative viability ([2]; first compound 0.005 µM)	relative viability ([2]; first compound 0.01581 µM)	relative viability ([2]; first compound 0.05 µM)	relative viability ([2]; first compound 0.1581 µM)	relative viability ([2]; first compound 0.5 µM)	relative viability ([3]; first compound 0.2 µM)	relative viability ([3]; first compound 0.6325 µM)	relative viability ([3]; first compound 2 µM)	relative viability ([3]; first compound 6.325 µM)	relative viability ([3]; first compound 20 µM)	relative viability ([4]; first compound 0.005 µM)	relative viability ([4]; first compound 0.01581 µM)	relative viability ([4]; first compound 0.05 µM)	relative viability ([4]; first compound 0.1581 µM)	relative viability ([4]; first compound 0.5 µM)	relative viability ([1]; first compound 6.325 µM)
LOU-NH91	0.522	0.502	0.508	0.481	0.912	0.887	0.773	0.603	0.45	0.564	0.584	0.523	0.507	0.55	0.698	0.583	0.438	0.371	0.272	0.524
NCI-H23	0.557	0.495	0.535	0.542	0.509	0.604	0.387	0.463	0.233	0.553	0.557	0.551	0.478	0.462	0.862	0.84	0.918	0.784	0.422	0.551
NCI-H1993	0.877	0.793	0.851	0.79	0.702	0.673	0.713	0.698	0.573	0.643	0.639	0.595	0.562	0.646	1.16	0.991	0.846	0.632	0.7	0.684
HCC-827	1.12	1	1.1	1.01	0.913	0.996	0.87	0.857	0.762	0.487	0.481	0.522	0.463	0.525	1.07	1.01	0.98	0.847	0.604	0.933
CAL-12T	0.381	0.464	0.578	0.377	0.805	0.84	0.774	0.565	0.416	0.531	0.654	0.555	0.49	0.489	1.25	1.45	1.08	1.2	0.686	0.352
NCI-H838	0.456	0.511	0.416	0.436	1.04	1.01	0.759	0.507	0.146	0.225	0.212	0.211	0.203	0.194	1.21	1.05	1	0.532	0.164	0.413
NCI-H2228	0.337	0.362	0.479	0.287	0.892	0.812	0.402	0.284	0.37	0.784	0.697	0.61	0.793	0.686	0.985	1.29	0.839	0.554	0.162	0.295
RERF-LC-KJ	0.566	0.583	0.583	0.494	0.964	0.946	0.535	0.619	0.516	1.04	1.2	1.05	0.965	0.852	1.24	1.1	0.792	0.618	0.641	0.42
HCC-366	0.132	0.137	0.204	0.0995	0.678	0.694	0.28	0.257	0.109	0.413	0.388	0.454	0.358	0.43	1.1	1.11	0.977	1.56	0.581	0.191
SK-LU-1	0.583	0.709	0.649	0.665	0.883	0.686	0.537	0.505	0.261	0.39	0.443	0.427	0.357	0.399	0.822	0.736	0.509	0.292	0.173	0.56
HCC-44	0.624	0.605	0.693	0.79	0.597	0.725	0.577	0.88	0.366	0.984	1	0.926	0.862	1.04	0.88	1.06	0.925	1.12	0.62	0.591
A-427	0.761	0.82	0.923	0.733	1.17	1.12	1.01	0.631	0.658	0.546	0.552	0.519	0.481	0.5	1.04	0.858	0.914	0.455	0.329	0.706
SW 1573	0.54	0.523	0.551	0.512	0.796	0.841	0.695	0.615	0.222	0.444	0.459	0.516	0.366	0.347	1.14	1.01	0.851	0.699	0.68	0.377
NCI-H322M	0.541	0.526	0.654	0.522	0.853	0.649	0.375	0.425	0.392	0.517	0.508	0.529	0.431	0.468	1.28	0.977	0.563	0.463	0.461	0.538
LK-2	0.521	0.635	0.487	0.561	0.456	0.847	0.403	0.394	0.176	0.639		0.706	0.787	0.732	1.01	0.838	0.673	0.374	0.169	0.491
NCI-H2023	0.282	0.254	0.241	0.23	0.653	0.709	0.547	0.369	0.208	0.454	0.386	0.495	0.235	0.332	1.13	1.06	0.875	0.88	0.252	0.214
